Laboratory results published in patent US20240307335A1, “IRG Blockade to Armor CAR T Cells Against Myeloid Dysfunction” (ROSWELL PARK CANCER INSTITUTE CORPORATION, priority 2023, published 2024).

Legend:
Type in all cases: cell-based, mouse
CAR T cells [1] = assay: Seahorse assay (ECAR, OCR) on CAR T cells from cocultures; conditions: L-NIL 50 μM; coculture 48 h
Procedure: (§1) CAR T cell isolation from initial coculture for subsequent downstream assays: 1×10^6 CAR T cells and 1×10^6 Eμ-myc-GFP-FFL cells were cocultured in the absence or presence of 0.25×10^6 macrophages in a 6-well plate in 6 ml of media for 48 h. After initial coculture, cells were harvested, and T cells were isolated using Mouse T Cell Isolation Kit (STEMCELL Technologies). T cell purity was 100% as tested by flow cytometry. Percentage of CAR-expressing T cells was determined with flow cytometry and were subsequently used for downstream assays.
Seahorse assay: ECAR and OCR were measured using a Seahorse Extracellular Flux Analyzer (Agilent Technologies). XF96 microplates were coated with CellTak a day before analyses. To assay glycolytic function, T cells were resuspended in glucose-free XF medium supplied with 2 mM L-glutamine and 1 mM sodium pyruvate and seeded at 2×10^5 cells in 180 μl per well. Following incubation in a CO2-free incubator for 60 min at 37° C. for pH stabilization, ECAR was measured in response to 10 mM glucose, 1 μM oligomycin, and 50 mM 2-deoxyglucose. […] Following incubation in a CO2-free incubator for 60 min at 37° C. for pH stabilization, OCR was measured in response to 1 μM oligomycin, 1 μM FCCP, and 0.5 μM rotenone and antimycin.

CAR T cells [2] = assay: Global metabolomics on CAR T cells from cocultures; conditions: L-NIL (50 PM); coculture 48 h
Procedure: as §1
Global metabolomic profiling and 13C6-labeled glucose tracing of CAR T cells, 1×10^6 T cells were resuspended in either RPMI-1640 medium (RPMI+10% heat-inactivated dialyzed FBS) or ^13C6-glucose substituted RPMI-1640 medium (glucose-free RPMI+10% heat-inactivated dialyzed FBS+11.1 mM ^13C6-glucose). After 4 h incubation, cells were collected, rapidly centrifuged (17,000×g, 10 sec, room temperature), and medium was removed. T cells were washed with 1 ml of ice-cold PBS, and metabolites were extracted with 300 μl of 80% methanol via incubation at −80° C. for 15 min. Samples were centrifuged (17,000×g, 20 min, 4° C.), and supernatants were transferred to an Eppendorf tube and dried in a vacuum evaporator overnight. The dried extracts were resuspended in 20 μl of aqueous 50% methanol, clarified by centrifugation (17,000×g, 20 min, room temperature), and analyzed by LC-HRMS.
LC-HRMS analysis was performed on a Vanquish UPLC coupled with a Q-Exactive HF mass spectrometer, employing the same conditions as the previously established methods 76. A ZIC-pHILIC LC column (4.6 mm inner diameter×150 mm length, […], MilliporeSigma, Burlington, MA) with a ZIC-pHILIC guard column (4.6 mm inner diameter×20 mm length, MilliporeSigma, Burlington, MA) was used for chromatographic separation at a column temperature of 30° C. […]

[3] = test system: CAR T cells cocultured with Eμ-myc cells with or without macrophages (imMac); assay: Expansion assay of mCherry+ CAR T cells (IncuCyte live cell analysis) in cocultures; conditions: CAR T cells and Eμ-myc cells with imMac, agent present (L-NIL 50 μM; anti-IFN-γ 10 μg/mL; c-PTIO); over 48 h
Procedure: Macrophage development and polarization: BMDMs were generated from bone marrow cells harvested from femurs and tibias of WT or iNOS^−/− mice. […] On day 3, 10 ml of fresh medium with 20 ng/ml M-CSF was added. On day 5, the culture medium was entirely discarded and replaced by 15 ml of fresh medium with 20 ng/ml M-CSF. On day 6, BMDMs were activated for 24 h with 20 ng/ml of IL-4 and IL-10 (Peprotech) to develop imMac or cultured in media only to use as unMac. M-CSF (20 ng/ml) was added during activation with cytokines. On day 7, adherent cells were harvested by gentle scraping and used for in vitro experiments.
Expansion assay: The expansion of mCherry^+ CAR T cells was determined by an IncuCyte S3 live cell analysis system (Essen Bioscience). 2×10^4 Eμ-myc cells and 2×10^4 CAR T cells were cocultured in the absence or presence of 0.5×10^4 macrophages (CAR T:Eμ-myc cell:Macrophage=1:1:0.25, unless otherwise indicated in the figures) in a 96-well black-walled clear bottom plate in 120 μl of media. Cell images were captured at 4× magnification. The expansion index was calculated by dividing the total integrated red intensity (RCU×m^2/mm^2) at each time point by the first time point.
Immunoregulatory actions of macrophages on CAR T cells: To explore how M2-like macrophages may impact the cellular function of CAR T cells, the study employed a syngeneic coculture system (FIG. 3A). […] The BMDMs were either unpolarized (unMac) or induced to differentiate into M2-like macrophages by culturing with type 2 cytokines IL-4 and IL-10. […] The study next explored the impact of imMac on CAR T cell effector function. To exclude the direct contribution of macrophage effector activities in these functional assays, CAR T cells, Eμ-myc cells, and macrophages were first cocultured for 48 hours (FIG. 3G). Next, CAR T cells isolated from the cocultures were evaluated for their effector function against fresh Eμ-myc cells.

CC(=N)NCCCC[C@H](N)C(=O)O.Cl [L-NIL, N^6-(1-Iminoethyl)-lysine, hydrochloride]
glycolytic metabolic capacity (ECAR) of CAR T cells from cocultures with imMac (CAR T cells [1]): preserved | oxidative metabolic capacity (OCR) of CAR T cells from cocultures with imMac (CAR T cells [1]): preserved | depletion of dihydroxyacetone phosphate (DHAP) in CAR T cells cocultured with imMac (CAR T cells [2]): reversal | depletion of fructose 1,6-bisphosphate (F1,6BP) in CAR T cells cocultured with imMac (CAR T cells [2]): reversal | depletion of glyceraldehyde 3-phosphate (G3P) in CAR T cells cocultured with imMac (CAR T cells [2]): reversal | CAR T cell expansion in cocultures with imMac [3]: complete rescue of CAR T cell expansion
